Key:
Format in all cases: in vivo, rat
[1] = test system: tyrosine hydroxylase (TH); assay: Example 1: TH immunopositive neuron count in SNc after 6-OHDA lesion, GPE given 2 hours later; conditions: lesioned (right) side; 3 μg GPE via guide cannula 2 hours after 6-OHDA; 14 days; 3 levels of SNc; vs vehicle; FIG. 1
Protocol: This experiment was blind with respect to the treatment (with GPE or the vehicle) and with respect to the counting of neurons expressing TH (between sections from animals treated with GPE or vehicle).
(§1) The objective of this experiment was to determine the effects of administering GPE on the expression of tyrosine hydroxylase (TH) in the presence or absence of CNS injury. […] Specifically, 9 pairs of adult male Wistar rats (280-320 g) were prepared under 3% halothane/O2 anaesthesia. The oxygen free radical producing neurotoxin 6-hydroxydopamine (6-OHDA) which produces degeneration of dopamine neurones (8 μg/2 μl) was injected into the median forebrain bundle using a 30 gauge needle (coordinates: anterior-posterior +4.7 mm, right +1.6 mm, vertical −8.5 mm). A guide cannula was placed on the dura 7.5 mm anterior from stereotaxic zero and 1.5 mm from the midline on the right. The rats were left to recover at room temperature. 2 hours after the administration of 6-OHDA the rats were treated, via the guide cannula, with 3μg GPE or vehicle alone (15μl injected with a pump rate of 2 μl/minute, 0.1M acetate buffer [pH6], diluted 10 times in 0.1 bovine serum albumin in 0.1M phosphate buffered saline [PBS][pH7.31]). […]
(§2) The total counts of neurons were compared between the GPE and the vehicle treated group. Data were analysed with paired t-test and presented as mean±sem.

[2] = test system: tyrosine hydroxylase (TH); assay: Example 2: TH immunopositive neuron count in SNc after 6-OHDA lesion, second set of rats; conditions: 3 μg GPE 2 hours after 6-OHDA; 2 levels of SNc counted; vs vehicle; FIG. 2
Protocol: as §1, §2
Example 2 was performed using a second set of rats (9 pairs), using the same experimental parameters except that only the immunopositive neurons at 2 levels of the SNc were counted.

[3] = test system: tyrosine hydroxylase (TH); assay: Example 3: TH immunostaining density and TH positive neuron number in SNc after 6-OHDA lesion
Protocol: A paired experimental design was used and the experimenter was blinded to the treatment groups. Eighteen male Wistar rats (50-60 days old, 280-310 g) were used for this study. 6-hydroxy dopamine (6-OHDA) was prepared as 8 μg in a base of 2 μl 0.9% saline containing 1% ascorbic acid. It was administered into the right medial forebrain bundle (MFB) using coordinates of AP+4.7 mm, R 1.6 mm, V−8 mm under anaesthesia of 3% halothane. 6-OHDA was injected into the right MFB using a Hamilton syringe (100 μl with a 30G needle) controlled by a microdialysis infusion pump at an infusion rate of 0.2 μl/minute. The infusion needle was then slowly withdrawn 5 minutes after the infusion. […] Briefly, a guide cannula (21G, 6 mm) was fixed on the top of the dura with coordinates of AP+7.5 mm, R 1.5 mm immediately after the injection of 6-OHDA. Either GPE (3 μg/15 μl) or its vehicle were infused into the right lateral ventricle 2 hours later at an infusion rate of 2 μl/minute. Rats were then housed in a holding room with food and water ad libitum for the next 2 weeks.
The rats were then deeply anaesthetized with an overdose of pentobarbital and transcardially perfused with normal saline followed by 10% buffered formalin. The brains were removed from the skull and kept in the same fixative for the next 48 hours. A standard paraffin tissue preparation was used to process the tissue so that it could be used for immunohistochemistry. Coronal sections (8 μm) were cut using a microtome, and the sections were mounted on chrome alum coated microscopy slides and air-dried. SNc sections used for immunohistochemical staining were deparaffinized, rehydrated and washed in PBS (0.1M). The sections were then pretreated with 1% H2O2 for 20 minutes, washed with 0.1M PBS (3×5 minutes) and incubated with rabbit polyclonal antisera raised against tyrosine hydroxylase (Protos Biotech, USA) diluted 1:500 with 1% goat serum for 48 hours at 4° C. The sections were washed in PBS (3×5 minutes) and incubated with donkey anti-rabbit biotinylated secondary antibody (1:200, Amersham, Life Science) overnight at room temperature. The sections were washed, incubated in streptavidin-biotinylated horseradish peroxidase (1:200, Amersham, Life Science) for 3 hours, washed again in PBS and then reacted in 0.05% 3,3-diaminobenzidine tetrahydrochloride (DAB) and 0.01% H2O2 to produce a brown reaction product. The sections were dehydrated in a graded alcohol series, cleared in xylene and coverslipped with mounting medium.
The average density from the background was also measured. The analyst was blinded to the treatment and control groups. The difference in average density between the background and TH immunostaining was calculated and used for data analysis. […]

[4] = test system: tyrosine hydroxylase (TH); assay: Example 4: survival of TH immunopositive nigral neurons after medial forebrain bundle transection; conditions: lesioned side; daily supranigral GPE 0.3 μg/μl, 1 μl, for two weeks after MFB transection; ipsilateral/contralateral; FIG. 5
Protocol: Adult male Wistar rats (200-220 g) were anaesthetized with 75 mg/kg Nembutal and positioned in a stereotaxic apparatus. Unilateral transection of the medial forebrain bundle which contains the ascending nigral dopaminergic projection fibers was made 1.3 mm rostral to the rostral tip of the SNc using a retractable wire knife (David Kopf Instruments, Tujunga, Calif.). The knife was lowered into the brain using the following coordinates from the atlas of Paxinos and Watson (1986), Sydney: Academic Press: 3.3 mm posterior to Bregma, 2.4 mm lateral from midline, and 8.5 mm ventral from skull, the blade was extended 2.0 mm toward midline, raised 2.5 mm dorsally, retracted and extended again, and then returned 2.5 mm ventrally. The wire blade was retracted and the knife withdrawn. Next, a 22-gauge metal guide cannula was permanently fixed into place supranigrally at 5.0 mm posterior to Bregma, 2.0 mm lateral to midline, and 6.8 mm ventral to skull. […]
Immunopositive cells were counted in the central SNc Counts were made ventral and lateral to the lemniscus medialis, including both the pars compacta and pars reticulata, but excluding the ventral tegmental area in the ventromedial midbrain and the retrorubral field in the caudolateral midbrain. […] To reveal percent survival, percent changes were calculated by dividing the ipsilateral value by contralateral value.

Substance: Gly-Pro-Glu [GPE]
- number of TH immunopositive dopaminergic neurons [1]: increased
- TH expression (number of TH immunopositive neurons) [2]: upregulation of TH expression
- loss of TH immunopositive neurons in the SNc ([3]; compared to the control group, 6-OHDA lesion): prevented the loss
- density of TH immunostaining in cytoplasm and processes of neurons ([3]; ipsilateral SNc, GPE intraventricularly 2 hours after 6-OHDA, FIG. 4): restored
- neuronal survival (TH immunopositive neurons, R/L ratio) ([3]; most caudal level of SNc, GPE 3 μg/15 μl into right lateral ventricle 2 hours after 6-OHDA, 2 weeks, mean±SEM): 60±13.0%
- restoration in TH immunoreactivity (density of TH immunostaining, R/L ratio) ([3]; most caudal level of SNc, GPE 3 μg/15 μl into right lateral ventricle 2 hours after 6-OHDA, 2 weeks, mean±SEM, FIG. 3): 99.6±27%
- percent cell survival of TH immunopositive neurons [4]: increased

Source: US6933282B2, “Regulation of tyrosine hydroxylase by GPE” (Neuren Pharmaceuticals Ltd., priority 1998, dated 2005)
